Source: PMC12445744, “Molecular docking to homology models of human and Trypanosoma brucei ERK8 that identified ortholog-specific inhibitors” (PLOS Neglected Tropical Diseases, 2025)
“And” between values parts separate entries of the source, which are not always exact repeats. Equal entries are not always repeated.

Target: T1, HsERK8 (Homo sapiens, UniProt Q8TD08)
T1 construct: plasmid pGEX2T expressing the full-length hERK8 coding region; made in house; host or cells: Escherichia coli Rosetta 2 (DE3)
T1 sequence (Q8TD08 1-544): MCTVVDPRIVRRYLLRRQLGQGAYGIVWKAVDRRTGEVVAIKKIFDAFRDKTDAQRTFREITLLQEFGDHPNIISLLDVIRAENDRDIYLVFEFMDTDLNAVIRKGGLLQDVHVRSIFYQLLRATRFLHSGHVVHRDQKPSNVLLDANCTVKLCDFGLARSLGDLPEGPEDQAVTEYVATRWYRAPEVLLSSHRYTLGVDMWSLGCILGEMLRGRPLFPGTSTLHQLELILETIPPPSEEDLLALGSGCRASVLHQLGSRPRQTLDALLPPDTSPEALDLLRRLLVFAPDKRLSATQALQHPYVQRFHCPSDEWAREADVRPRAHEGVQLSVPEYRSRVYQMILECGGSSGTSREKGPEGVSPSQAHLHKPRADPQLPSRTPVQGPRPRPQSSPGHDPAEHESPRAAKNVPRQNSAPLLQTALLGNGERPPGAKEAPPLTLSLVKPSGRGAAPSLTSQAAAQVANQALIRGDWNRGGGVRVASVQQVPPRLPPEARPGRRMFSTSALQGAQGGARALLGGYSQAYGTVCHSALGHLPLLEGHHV
Experiment: Luciferase-based kinase inhibition assay (ATP luminescence), GST-tagged HsERK8 with MBP substrate
Type: biochemical
Conditions: for raw luminescence, HsERK8: replicate wells; for raw luminescence, HsERK8 / Luminescence Raw (Kinase-Glo): listed as Sil; for Luminescence Raw (Kinase-Glo): HsERK8

Compound: CCCc1nn(C)c2c(=O)[nH]c(-c3cc(S(=O)(=O)N4CCN(C)CC4)ccc3OCC)nc12 [Sildenafil]
- raw luminescence, HsERK8 (0.00015 mM compound, sheet ADP_ATP_glo081724 (3)): 2773.07 RLU and 2877.12 RLU and 2182.72 RLU
- raw luminescence, HsERK8 (0.00015 mM compound, sheet Kinase_glo 08142024 (2)): 6784.32 RLU and 6634.26 RLU and 5826.91 RLU
- raw luminescence, HsERK8 (0.00015 mM compound, sheet Kinase_glo_080924_IFPS (2)): 3800.03 RLU and 4341.28 RLU and 3728.16 RLU
- raw luminescence, HsERK8 (0.00061 mM compound, sheet ADP_ATP_glo081724 (3)): 3277.47 RLU and 3338.54 RLU and 3085.21 RLU
- raw luminescence, HsERK8 (0.00061 mM compound, sheet Kinase_glo 08142024 (2)): 5721.23 RLU and 5653.6 RLU and 3903.63 RLU
- raw luminescence, HsERK8 (0.00061 mM compound, sheet Kinase_glo_080924_IFPS (2)): 1396.94 RLU and 1477.79 RLU and 1381.21 RLU
- raw luminescence, HsERK8 (0.00244 mM compound, sheet ADP_ATP_glo081724 (3)): 3469.73 RLU and 3284.26 RLU and 2883.9 RLU
- raw luminescence, HsERK8 (0.00244 mM compound, sheet Kinase_glo 08142024 (2)): 7264.08 RLU and 7348.62 RLU and 5611.33 RLU
- raw luminescence, HsERK8 (0.00244 mM compound, sheet Kinase_glo_080924_IFPS (2)): 3130.75 RLU and 3411.49 RLU and 2899.43 RLU
- raw luminescence, HsERK8 (0.00977 mM compound, sheet ADP_ATP_glo081724 (3)): 2892.95 RLU and 2795.69 RLU and 2354.62 RLU
- raw luminescence, HsERK8 (0.00977 mM compound, sheet Kinase_glo 08142024 (2)): 7046.4 RLU and 7135.16 RLU and 5429.57 RLU
- raw luminescence, HsERK8 (0.00977 mM compound, sheet Kinase_glo_080924_IFPS (2)): 3247.54 RLU and 3584.42 RLU and 3180.16 RLU
- raw luminescence, HsERK8 (0.03906 mM compound, sheet ADP_ATP_glo081724 (3)): 3397.35 RLU and 3566.99 RLU and 3141.76 RLU
- raw luminescence, HsERK8 (0.03906 mM compound, sheet Kinase_glo 08142024 (2)): 6515.91 RLU and 6714.58 RLU and 5167.5 RLU
- raw luminescence, HsERK8 (0.03906 mM compound, sheet Kinase_glo_080924_IFPS (2)): 3400.26 RLU and 3463.14 RLU and 3305.93 RLU
- IC50 (50 μM ATP, 30 min 30°C, triplicate, n/d = no detectible inhibition, read-out: HsERK8 IC50): 8 mM
- raw luminescence, HsERK8 (0.15625 mM compound, sheet ADP_ATP_glo081724 (3)): 3281.99 RLU and 3150.8 RLU and 2531.05 RLU
- raw luminescence, HsERK8 (0.15625 mM compound, sheet Kinase_glo 08142024 (2)): 6655.4 RLU and 6579.31 RLU and 5562.72 RLU
- raw luminescence, HsERK8 (0.15625 mM compound, sheet Kinase_glo_080924_IFPS (2)): 3817.99 RLU and 4080.76 RLU and 3636.08 RLU
- raw luminescence, HsERK8 (0.62500 mM compound, sheet ADP_ATP_glo081724 (3)): 3474.25 RLU and 3356.64 RLU and 2585.33 RLU
- raw luminescence, HsERK8 (0.62500 mM compound, sheet Kinase_glo 08142024 (2)): 8487.8 RLU and 8306.04 RLU and 6687.1 RLU
- raw luminescence, HsERK8 (0.62500 mM compound, sheet Kinase_glo_080924_IFPS (2)): 5547.32 RLU and 5693.3 RLU and 4916.23 RLU
- raw luminescence, HsERK8 (2.50000 mM compound, sheet ADP_ATP_glo081724 (3)): 11748.2 RLU and 11610.3 RLU and 8563.49 RLU
- raw luminescence, HsERK8 (2.50000 mM compound, sheet Kinase_glo 08142024 (2)): 29728.4 RLU and 30364.6 RLU and 22572.1 RLU
- raw luminescence, HsERK8 (2.50000 mM compound, sheet Kinase_glo_080924_IFPS (2)): 13814.9 RLU and 12641.6 RLU and 13534.9 RLU
- raw luminescence, HsERK8 (10.00000 mM compound, sheet ADP_ATP_glo081724 (3)): 18796.3 RLU and 18852.8 RLU and 18760.1 RLU
- raw luminescence, HsERK8 (10.00000 mM compound, sheet Kinase_glo 08142024 (2)): 37233.5 RLU and 36922.8 RLU and 36986.2 RLU
- raw luminescence, HsERK8 (10.00000 mM compound, sheet Kinase_glo_080924_IFPS (2), signal = ATP left): 19808.3 RLU and 19442.1 RLU and 19894.1 RLU
- Luminescence Raw (Kinase-Glo) (inhibitor 0.00976562 mM, sheet Sil_Pred3, read 3): 76824 and 76849.7 and 75718.2
- Luminescence Raw (Kinase-Glo) (inhibitor 0.0195312 mM, sheet Sil_Pred3, read 3): 84913.3 and 83327.3 and 84201.1
- Luminescence Raw (Kinase-Glo) (inhibitor 0.0390625 mM, sheet Sil_Pred3, read 3): 86810.9 and 87656.6 and 88003.3
- Luminescence Raw (Kinase-Glo) (inhibitor 0.078125 mM, sheet Sil_Pred3, read 3): 83688.1 and 81764.7 and 82605.8
- Luminescence Raw (Kinase-Glo) (inhibitor 0.15625 mM, sheet Sil_Pred3, read 3): 84571.3 and 87872.1 and 86433.7
- Luminescence Raw (Kinase-Glo) (inhibitor 0.3125 mM, sheet Sil_Pred3, read 3): 80438.8 and 81286.8 and 83022.8
- Luminescence Raw (Kinase-Glo) (inhibitor 0.625 mM, sheet Sil_Pred3, read 3): 81408.6 and 81148.6 and 80450.5
- Luminescence Raw (Kinase-Glo) (inhibitor 0.00976562, sheet Sil_Pred1, read 1): 87353.2 and 86988.7 and 86809.9
- Luminescence Raw (Kinase-Glo) (inhibitor 0.00976562, sheet Sil_Pred2, read 2): 79598.9 and 79331.5 and 78826.8
- Luminescence Raw (Kinase-Glo) (inhibitor 0.0195312, sheet Sil_Pred1, read 1): 97908.4 and 96150.4 and 96258.1
- Luminescence Raw (Kinase-Glo) (inhibitor 0.0195312, sheet Sil_Pred2, read 2): 87627.4 and 86394.8 and 87122.7
- Luminescence Raw (Kinase-Glo) (inhibitor 0.0390625, sheet Sil_Pred1, read 1): 100125 and 101023 and 101243
- Luminescence Raw (Kinase-Glo) (inhibitor 0.0390625, sheet Sil_Pred2, read 2): 89720.6 and 90218.3 and 91030
- Luminescence Raw (Kinase-Glo) (inhibitor 0.078125, sheet Sil_Pred1, read 1): 96870.1 and 94163.1 and 94380.9
- Luminescence Raw (Kinase-Glo) (inhibitor 0.078125, sheet Sil_Pred2, read 2): 86171.5 and 85045.8 and 85399.3
- Luminescence Raw (Kinase-Glo) (inhibitor 0.15625, sheet Sil_Pred1, read 1): 97571.5 and 101844 and 101823
- Luminescence Raw (Kinase-Glo) (inhibitor 0.15625, sheet Sil_Pred2, read 2): 87601.8 and 91464.9 and 91334.7
- Luminescence Raw (Kinase-Glo) (inhibitor 0.3125, sheet Sil_Pred1, read 1): 91875.5 and 94802.6 and 96700.5
- Luminescence Raw (Kinase-Glo) (inhibitor 0.3125, sheet Sil_Pred2, read 2): 83203.8 and 85106.3 and 85450.5
- Luminescence Raw (Kinase-Glo) (inhibitor 0.625 (mM per sheet Pred3), sheet Kinase-Glo802124_Sil_Pred1, read 1, triplicate wells): 95077.7 and 94021 and 92790.1
- Luminescence Raw (Kinase-Glo) (inhibitor 0.625, sheet Sil_Pred2, read 2): 85048.1 and 84027.1 and 84180.6
